Data on two molecules can be found in patent publication US20230255868A1, “SANITIZING COMPOSITION” (Conopco, Inc., d/b/a UNILEVER, priority 2020, published 2023).

For this assay, the system named is Adenovirus. Description: ASTM E1052-20 microbicides against viruses in suspension. The settings on record: 60 Seconds, remaining virus titre, Control 4.75. It counts as cell-based. Here is the method:
Skin, as used herein, is meant to include skin on the arms (including underarms), face, feet, neck, chest, hands, legs, buttocks and scalp (including hair). Sanitizing as used herein means a bacteria log kill of at least 2 and a viral log inactivation of at least 2 (both achieved) in less than 3 minutes after topical application to a surface. Sanitizing precursor means a composition which is a concentrate and suitable to be diluted (or hydrated) with water to produce a sanitizing composition ready for use. Combination, as used herein means, total weight of cetrimonium chloride plus benzalkonium chloride. Skin benefit agent means an ingredient suitable to improve a skin characteristic. Surface as used herein includes skin or the surface of an inanimate object such as a table top, computer monitor, door knob, toilet seat, shopping cart handle or even a clothing garment. Surface is also meant to include the coat of an animal such as the fur on a dog and cat. As used herein, surface preferably means human skin, and especially, skin on the face and hands. The dimonium and trimonium compounds used herein are meant to include salts of the same, especially chlorides and bromides of the same. Cationic surfactant, as used herein, is meant to include polyquaternium materials, like for example, polyquaternium-6. In an embodiment of the invention, the sanitizing composition of the present invention is a home care composition like a laundry spray composition suitable to spray clothing and upholstery requiring sanitizing. The home care composition can also be a sanitizing kitchen or bathroom spray composition. […] The composition of the present invention may optionally comprise skin benefit agents added thereto such as emollients, vitamins and/or derivatives thereof, resorcinols, retinoic acid precursors, colorants, moisturizers or humectants, fragrances, sunscreens, a mixture thereof or the like. The skin benefit ingredients may be water or oil soluble. The sanitizing composition, therefore, is an aqueous based composition with a pH from 3.0 to 8.2, and the composition is water continuous. Viscosity, as used herein, is taken with a Brookfield RV spindle 6 at 20 rpm for 30 seconds at 25° C. unless noted otherwise. […] Antimicrobial benefits mean at least a log kill of 2 in under 3 minutes whereby antimicrobial assessment is measured via test method ASTM-E2783-11 (Reapproved 2016) which sets forth the procedure for measuring antimicrobial activity for water miscible compounds using a time kill procedure. Viral (or virus) inactivation is determined by assessing the impact of microbiocides against viruses as set forth in ASTM-1052-20. […]

`CCCCCCCCCCCCCCCC[n+]1ccccc1.[Cl-]` [CPC, cetylpyridinum chloride]: the “ADENOVIRUS Inactivation, Log10 TCID 50/0.1 ml” value runs as follows: (test substance at 0.05%) 1.6 Log10 TCID 50/0.1 ml; (test substance at 0.1%) 1.6 Log10 TCID 50/0.1 ml.

Consider `CCCCCCCCCCCCCCCC[N+](C)(C)C.[Br-]` [CTAB, cetrimonium bromide], for which the “ADENOVIRUS Inactivation, Log10 TCID 50/0.1 ml” value by setting is: (test substance at 0.05%) 2.5 Log10 TCID 50/0.1 ml; (test substance at 0.1%) 1.75 Log10 TCID 50/0.1 ml.
